Test results as given in ChEMBL document CHEMBL1152360, “Structure-activity relationships of memoquin: Influence of the chain chirality in the multi-target mechanism of action” (Bioorg Med Chem Lett, 2009).
pIC50: −log10 of the molar value.

Assays:
[1] = biological target: Amyloid-beta precursor protein (Homo sapiens) (UniProt P05067); test: Inhibition of self-assembly of human amyloid beta (1-42) aggregation at 10 uM by thioflavin T-based fluorometric assay
[2] = biological target: T1, Acetylcholinesterase (Homo sapiens, UniProt P22303); test: Inhibition of human AChE-induced amyloid beta (1-40) aggregation by thioflavin T fluorescence-based assay
T1 sequence (P22303 whole entry): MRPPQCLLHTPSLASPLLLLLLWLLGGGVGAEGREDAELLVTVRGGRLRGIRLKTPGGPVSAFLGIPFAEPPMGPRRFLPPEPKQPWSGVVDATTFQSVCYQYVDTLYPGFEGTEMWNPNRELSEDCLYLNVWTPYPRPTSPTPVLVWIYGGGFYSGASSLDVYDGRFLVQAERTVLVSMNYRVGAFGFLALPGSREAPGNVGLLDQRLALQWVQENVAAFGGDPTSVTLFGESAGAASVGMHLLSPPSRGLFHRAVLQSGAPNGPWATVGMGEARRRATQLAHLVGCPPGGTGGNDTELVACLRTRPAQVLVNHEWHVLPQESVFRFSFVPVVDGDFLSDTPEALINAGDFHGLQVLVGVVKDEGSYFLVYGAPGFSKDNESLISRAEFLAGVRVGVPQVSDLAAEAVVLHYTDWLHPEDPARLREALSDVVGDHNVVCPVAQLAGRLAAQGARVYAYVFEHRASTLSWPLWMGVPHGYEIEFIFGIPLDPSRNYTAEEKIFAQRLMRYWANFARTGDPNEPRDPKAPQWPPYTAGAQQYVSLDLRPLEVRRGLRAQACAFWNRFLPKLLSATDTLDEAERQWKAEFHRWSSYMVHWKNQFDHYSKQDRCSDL

[3] = biological target: Cholinesterases; ACHE & BCHE (Homo sapiens) (UniProt P06276+P22303); test: Selectivity ratio of IC50 for human recombinant BchE to IC50 for human recombinant AChE
Chain of Cholinesterases; ACHE & BCHE (Homo sapiens) (P06276 whole entry, looked up): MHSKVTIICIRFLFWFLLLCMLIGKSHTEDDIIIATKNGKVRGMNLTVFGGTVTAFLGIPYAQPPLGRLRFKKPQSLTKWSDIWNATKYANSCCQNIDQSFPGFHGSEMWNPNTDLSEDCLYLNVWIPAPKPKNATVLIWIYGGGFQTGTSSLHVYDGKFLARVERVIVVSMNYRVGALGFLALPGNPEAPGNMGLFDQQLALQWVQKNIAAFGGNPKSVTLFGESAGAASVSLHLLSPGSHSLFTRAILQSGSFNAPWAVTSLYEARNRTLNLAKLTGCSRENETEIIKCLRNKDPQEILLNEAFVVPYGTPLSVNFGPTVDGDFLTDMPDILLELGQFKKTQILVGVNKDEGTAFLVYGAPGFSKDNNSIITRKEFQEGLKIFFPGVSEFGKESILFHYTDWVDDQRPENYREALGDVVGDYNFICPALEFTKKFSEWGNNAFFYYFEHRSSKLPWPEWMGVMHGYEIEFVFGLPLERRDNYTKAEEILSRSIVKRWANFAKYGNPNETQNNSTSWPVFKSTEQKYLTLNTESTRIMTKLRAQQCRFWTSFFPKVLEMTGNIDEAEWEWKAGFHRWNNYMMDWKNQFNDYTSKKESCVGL
Chain of Cholinesterases; ACHE & BCHE (Homo sapiens) (P22303 whole entry, looked up): as the sequence (P22303 whole entry) above

[4] = biological target: T1, Acetylcholinesterase; test: Inhibition of human recombinant AChE preincubated 20 mins before substrate addition by Ellman method
[5] = biological target: Cholinesterase (Homo sapiens, UniProt P06276); test: Inhibition of human recombinant BchE preincubated 20 mins before substrate addition by Ellman method
Chain of Cholinesterase (P06276 whole entry): as the sequence (P06276 whole entry, looked up) above

Chain of Amyloid-beta precursor protein (Homo sapiens) (P05067 whole entry): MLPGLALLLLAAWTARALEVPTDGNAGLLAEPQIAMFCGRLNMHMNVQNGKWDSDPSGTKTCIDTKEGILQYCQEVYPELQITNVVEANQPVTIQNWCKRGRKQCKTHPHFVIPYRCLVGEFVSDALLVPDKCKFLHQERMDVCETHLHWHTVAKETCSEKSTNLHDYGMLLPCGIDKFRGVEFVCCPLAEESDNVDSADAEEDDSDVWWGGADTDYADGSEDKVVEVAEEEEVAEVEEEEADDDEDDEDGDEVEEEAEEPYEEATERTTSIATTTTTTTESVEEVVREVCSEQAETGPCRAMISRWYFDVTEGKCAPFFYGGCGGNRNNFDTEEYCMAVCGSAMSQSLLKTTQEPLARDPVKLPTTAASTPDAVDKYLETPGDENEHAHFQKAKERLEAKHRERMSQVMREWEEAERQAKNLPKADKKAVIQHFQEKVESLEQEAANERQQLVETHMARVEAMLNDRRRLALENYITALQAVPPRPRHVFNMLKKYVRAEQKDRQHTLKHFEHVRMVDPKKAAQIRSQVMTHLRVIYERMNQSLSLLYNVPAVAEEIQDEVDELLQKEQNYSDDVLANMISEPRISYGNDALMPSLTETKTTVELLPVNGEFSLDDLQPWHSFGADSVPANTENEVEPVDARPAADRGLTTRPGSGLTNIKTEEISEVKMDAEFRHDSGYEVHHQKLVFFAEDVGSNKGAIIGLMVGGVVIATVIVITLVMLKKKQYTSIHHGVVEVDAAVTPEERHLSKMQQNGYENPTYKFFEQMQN

| Compound | inhibition [1] | pIC50 [2] | Ratio IC50 [3] | pIC50 [4] | pIC50 [5] |
| --- | --- | --- | --- | --- | --- |
| CCN(CCCCCCNC1=CC(=O)C(NCCCCCCN(CC)[C@@H](C)c2ccccc2OC)=CC1=O)[C@@H](C)c1ccccc1OC | 62.3% | 5.10 | 238 | 8.39 | 6.02 |
| CCN(CCCCCCNC1=CC(=O)C(NCCCCCCN(CC)[C@@H](C)c2ccccc2OC)=CC1=O)[C@H](C)c1ccccc1OC | 63.5% | 4.96 | 2730 | 9.44 | 6.01 |
| CCN(CCCCCCNC1=CC(=O)C(NCCCCCCN(CC)[C@H](C)c2ccccc2OC)=CC1=O)[C@H](C)c1ccccc1OC | 63.9% | 5.03 | 2960 | 9.30 | 5.83 |
| CCN(CCCCCCNC1=CC(=O)C(NCCCCCCN(CC)Cc2ccccc2OC)=CC1=O)Cc1ccccc1OC |  |  | 929 |  |  |
